These results are taken from ChEMBL document CHEMBL1144826, “Selective vasodilatation effect of sargahydroquinoic acid, an active constituent of Sargassum micracanthum, on the basilar arteries of rabbits” (Bioorg Med Chem Lett, 2008).

A short description of test [1]: Vasodialative effect on high K+-induced vasoconstriction in rabbit carotid artery. It counts as functional, Oryctolagus cuniculus.
Test [2] is described as follows: Selectivity index, ratio of EC50 for vasodialative effect on high K+-induced vasoconstriction in rabbit carotid artery to basilar artery. It counts as functional, Oryctolagus cuniculus.
Test [3] can be described thus: Vasodialative effect on high K+-induced vasoconstriction in rabbit basilar artery. It counts as functional, tissue-based, Oryctolagus cuniculus.

For orientation: EC50 means the concentration needed to bring the measured effect to its halfway point. Lower therefore signals an effect from little substance. For the compound `CC(C)=CCC/C(=C/CC/C(C)=C/CC/C(C)=C/Cc1cc(O)cc(C)c1O)C(=O)O` [SARGAHYDROQUINOIC ACID], the values for the EC50 in test [1] and in test [3] were 140 µM and 11.8 µM, respectively. For the same compound, the “Ratio EC50” value in test [2] was 11.9.
